In article PMC4273943 (Molecular microbiology, 2011):

Target: CRP homolog RC1_3788 (CgrA) (Rhodospirillum centenum, UniProt B6IXV7)
Experiment: isothermal titration calorimetry
Assay type: binding

Kd: 38.5 nM
SMILES: Nc1nc2c(ncn2[C@@H]2O[C@@H]3COP(=O)(O)O[C@H]3[C@H]2O)c(=O)[nH]1 [cGMP]
